Assay results from article PMC12406255, “Engineering Peptide Modulators for T‑Cell Migration by Structural Scaffold Matching” (Journal of Medicinal Chemistry, 2025).
Where two headings read alike, the source gives them in different places. Positions of bridges follow the written chain, without caps; N, C: chain ends. Non-standard residues stand in square brackets, D forms with d. Residues, ends and D or L forms follow the SMILES beside them. Nle = CCCC[C@H](N)C(=O)O

Columns and labels:
Assay type in all cases: cell-based, human
[1] = system: memory CD4+ cells (CD3+, CD4+, CD45RO+); details: for % Inhibition of cell migration compared to control, Memory CD4+: normalized to untreated control, mean ± SEM of 4-6 experiments
[2] = system: memory CD8+ cells (CD3+, CD8+, CD45RO+); details: for % Inhibition of cell migration compared to control, Memory CD8+: normalized to untreated control, mean ± SEM of 4-6 experiments
[3] = system: CD4+ lymphocytes (CD3+, CD4+); details: for % Inhibition of cell migration compared to control, CD4+: normalized to untreated control, mean ± SEM of 4-6 experiments

CCCC[C@@H]1NC(=O)[C@H](C(C)C)NC(=O)[C@H](CCCCN)NC(=O)[C@@H](NC(=O)[C@H](CCC(N)=O)NC(=O)[C@H](CCC(=O)O)NC(C)=O)CSSC[C@@H](C(=O)N[C@@H](CCC(=O)O)C(=O)N[C@@H](CCCCN)C(N)=O)NC(=O)[C@H](CC(N)=O)NC(=O)[C@H](CC(=O)O)NC(=O)[C@H](CC(C)C)NC(=O)[C@@H]2CSSC[C@H](NC1=O)C(=O)N[C@@H](Cc1ccc(O)cc1)C(=O)N[C@@H](C)C(=O)N[C@@H](CCC(N)=O)C(=O)NCC(=O)N[C@@H](C)C(=O)N[C@@H](CCC(=O)O)C(=O)N[C@@H](CC(C)C)C(=O)N1CCC[C@H]1C(=O)N[C@@H](CCC(=O)O)C(=O)N[C@@H](CC(C)C)C(=O)N[C@@H](CC(C)C)C(=O)N[C@@H](CCCNC(=N)N)C(=O)N[C@@H](CCCNC(=N)N)C(=O)N2 [VhTI-pep 2] (Ac-EQCKV[Nle]CYAQGAELPELLRRCLDNCEK-NH2; disulfide 3-25, 7-21)
% Inhibition of cell migration compared to control, Memory CD4+ ([1]; 0.1 μM): 34.4 ± 16.7% | % Inhibition of cell migration compared to control, Memory CD4+ ([1]; 1 μM): 31.5 ± 10.4% | EC50 ([1]; EC monolayer pretreated with peptide, healthy-donor PBMC, 4 h, mean ± SD, 4 independent measurements, read-out: EC50, inhibition of memory CD4+ cell migration): 9.8 ± 16.5 nM | % Inhibition of cell migration compared to control, Memory CD8+ ([2]; 0.1 μM): 23.0 ± 6.9% | % Inhibition of cell migration compared to control, Memory CD8+ ([2]; 1 μM): 21.9 ± 8.1% | EC50 ([2]; EC monolayer pretreated with peptide, healthy-donor PBMC, 4 h, mean ± SD, 4 independent measurements, read-out: EC50, inhibition of memory CD8+ cell migration): 6.3 ± 9.7 nM | % Inhibition of cell migration compared to control, CD4+ ([3]; 0.1 μM): 34.3 ± 8.0% | % Inhibition of cell migration compared to control, CD4+ ([3]; 1 μM): 33.2 ± 6.1% | EC50 ([3]; EC monolayer pretreated with peptide, healthy-donor PBMC, 4 h, mean ± SD, 4 independent measurements, read-out: EC50, inhibition of CD4+ cell migration): 10.5 ± 15.9 nM | maximal effect of inhibition of cell migration, CD4+ lymphocytes ([3]; from the concentration-response experiment): 39.9 ± 12.5%
